Experimental data published in the NIST ThermoML archive (doi:10.1016/j.fluid.2005.06.010).
Numbers after ± are expanded uncertainties.

Assay: xn = mol fraction of the nth substance listed
Conditions: Fluid (supercritical or subcritical phases), Vibrating tube method

c1ccc2ccccc2c1 [naphthalene] + O=C=O
mass density (318.11 K, 16084 kPa, x1 = 0.0093): 785.19 ± 0.66 kg/m3 | mass density (318.11 K, 16667 kPa, x1 = 0.0065): 790.99 ± 0.68 kg/m3 | mass density (318.11 K, 16960 kPa, x1 = 0.0093): 796.88 ± 0.63 kg/m3 | mass density (318.11 K, 17000 kPa, x1 = 0.0049): 787.78 ± 0.65 kg/m3 | mass density (318.11 K, 17635 kPa, x1 = 0.0065): 803.78 ± 0.65 kg/m3 | mass density (318.11 K, 17984 kPa, x1 = 0.0093): 809.07 ± 0.61 kg/m3 | mass density (318.11 K, 17995 kPa, x1 = 0.0049): 800.44 ± 0.62 kg/m3 | mass density (318.11 K, 18460 kPa, x1 = 0.0065): 812.58 ± 0.64 kg/m3 | mass density (318.11 K, 18977 kPa, x1 = 0.0049): 811.61 ± 0.6 kg/m3 | mass density (318.11 K, 18989 kPa, x1 = 0.0093): 819.91 ± 0.59 kg/m3 | mass density (318.11 K, 19176 kPa, x1 = 0.0065): 820.58 ± 0.62 kg/m3 | mass density (318.11 K, 19789 kPa, x1 = 0.0093): 827.92 ± 0.58 kg/m3 | mass density (318.11 K, 19904 kPa, x1 = 0.0065): 827.96 ± 0.6 kg/m3 | mass density (318.11 K, 20045 kPa, x1 = 0.0049): 822.71 ± 0.59 kg/m3 | mass density (318.11 K, 20953 kPa, x1 = 0.0093): 838.54 ± 0.56 kg/m3 | mass density (318.11 K, 20963 kPa, x1 = 0.0049): 831.61 ± 0.57 kg/m3 | mass density (318.11 K, 21000 kPa, x1 = 0.0065): 838.23 ± 0.59 kg/m3 | mass density (318.11 K, 21926 kPa, x1 = 0.0065): 846.14 ± 0.57 kg/m3 | mass density (318.11 K, 22004 kPa, x1 = 0.0049): 840.84 ± 0.56 kg/m3 | mass density (318.11 K, 22031 kPa, x1 = 0.0093): 847.64 ± 0.55 kg/m3 | mass density (318.11 K, 22694 kPa, x1 = 0.0093): 852.96 ± 0.55 kg/m3 | mass density (318.11 K, 22962 kPa, x1 = 0.0049): 848.85 ± 0.55 kg/m3 | mass density (318.11 K, 22968 kPa, x1 = 0.0065): 854.56 ± 0.57 kg/m3 | mass density (318.11 K, 23517 kPa, x1 = 0.0093): 859.24 ± 0.54 kg/m3 | mass density (318.11 K, 23867 kPa, x1 = 0.0065): 861.51 ± 0.57 kg/m3 | mass density (318.11 K, 24017 kPa, x1 = 0.0049): 857.07 ± 0.54 kg/m3 | mass density (318.11 K, 24931 kPa, x1 = 0.0093): 869.34 ± 0.53 kg/m3 | mass density (318.11 K, 24993 kPa, x1 = 0.0065): 869.51 ± 0.55 kg/m3 | mass density (318.13 K, 9447 kPa, x1 = 0.0038): 467.84 ± 3.5 kg/m3 | mass density (318.13 K, 9511 kPa, x1 = 0.0038): 479.86 ± 3.5 kg/m3 | mass density (318.13 K, 9624 kPa, x1 = 0.0038): 500.05 ± 3.5 kg/m3 | mass density (318.13 K, 9723 kPa, x1 = 0.0038): 516.4 ± 3.4 kg/m3 | mass density (318.13 K, 9815 kPa, x1 = 0.0038): 530.29 ± 2.3 kg/m3 | mass density (318.13 K, 10026 kPa, x1 = 0.0038): 558.2 ± 2.1 kg/m3 | mass density (318.13 K, 11028 kPa, x1 = 0.0038): 638.56 ± 1.4 kg/m3 | mass density (318.13 K, 12034 kPa, x1 = 0.0038): 682.9 ± 1.1 kg/m3 | mass density (318.13 K, 13013 kPa, x1 = 0.0038): 712.68 ± 0.89 kg/m3 | mass density (318.13 K, 14016 kPa, x1 = 0.0038): 736.26 ± 0.79 kg/m3 | mass density (318.13 K, 15020 kPa, x1 = 0.0038): 755.47 ± 0.73 kg/m3 | mass density (318.13 K, 15435 kPa, x1 = 0.0214): 798.75 ± 0.68 kg/m3 | mass density (318.13 K, 15510 kPa, x1 = 0.0214): 799.63 ± 0.66 kg/m3 | mass density (318.13 K, 15611 kPa, x1 = 0.0214): 800.92 ± 0.63 kg/m3 | mass density (318.13 K, 15832 kPa, x1 = 0.0214): 803.59 ± 0.63 kg/m3 | mass density (318.13 K, 16002 kPa, x1 = 0.0038): 771.53 ± 0.68 kg/m3 | mass density (318.13 K, 16016 kPa, x1 = 0.0214): 805.76 ± 0.63 kg/m3 | mass density (318.13 K, 16531 kPa, x1 = 0.0214): 811.8 ± 0.64 kg/m3 | mass density (318.13 K, 16555 kPa, x1 = 0.0204): 810.95 ± 0.62 kg/m3 | mass density (318.13 K, 17029 kPa, x1 = 0.0214): 817.29 ± 0.62 kg/m3 | mass density (318.13 K, 17033 kPa, x1 = 0.0038): 786.19 ± 0.65 kg/m3 | mass density (318.13 K, 17049 kPa, x1 = 0.0204): 816.49 ± 0.62 kg/m3 | mass density (318.13 K, 17588 kPa, x1 = 0.0204): 822.21 ± 0.6 kg/m3 | mass density (318.13 K, 18000 kPa, x1 = 0.0214): 827.3 ± 0.59 kg/m3 | mass density (318.13 K, 18021 kPa, x1 = 0.0038): 798.72 ± 0.62 kg/m3 | mass density (318.13 K, 18067 kPa, x1 = 0.0204): 827.01 ± 0.59 kg/m3 | mass density (318.13 K, 18584 kPa, x1 = 0.0204): 832.05 ± 0.58 kg/m3 | mass density (318.13 K, 19038 kPa, x1 = 0.0038): 810.39 ± 0.6 kg/m3 | mass density (318.13 K, 19046 kPa, x1 = 0.0214): 837.22 ± 0.58 kg/m3 | mass density (318.13 K, 19123 kPa, x1 = 0.0204): 837.04 ± 0.58 kg/m3 | mass density (318.13 K, 19537 kPa, x1 = 0.0204): 840.73 ± 0.58 kg/m3 | mass density (318.13 K, 20002 kPa, x1 = 0.0038): 820.43 ± 0.59 kg/m3 | mass density (318.13 K, 20016 kPa, x1 = 0.0214): 845.63 ± 0.56 kg/m3 | mass density (318.13 K, 20055 kPa, x1 = 0.0204): 845.16 ± 0.56 kg/m3 | mass density (318.13 K, 20564 kPa, x1 = 0.0204): 849.36 ± 0.56 kg/m3 | mass density (318.13 K, 21012 kPa, x1 = 0.0214): 853.76 ± 0.55 kg/m3 | mass density (318.13 K, 21027 kPa, x1 = 0.0038): 830.26 ± 0.58 kg/m3 | mass density (318.13 K, 21058 kPa, x1 = 0.0204): 853.31 ± 0.55 kg/m3 | mass density (318.13 K, 21568 kPa, x1 = 0.0204): 857.24 ± 0.55 kg/m3 | mass density (318.13 K, 22015 kPa, x1 = 0.0038): 839.08 ± 0.56 kg/m3 | mass density (318.13 K, 22015 kPa, x1 = 0.0214): 861.35 ± 0.54 kg/m3 | mass density (318.13 K, 22022 kPa, x1 = 0.0204): 860.61 ± 0.54 kg/m3 | mass density (318.13 K, 22506 kPa, x1 = 0.0204): 864.13 ± 0.54 kg/m3 | mass density (318.13 K, 23014 kPa, x1 = 0.0038): 847.4 ± 0.55 kg/m3 | mass density (318.13 K, 24022 kPa, x1 = 0.0038): 855.31 ± 0.55 kg/m3 | mass density (318.13 K, 25018 kPa, x1 = 0.0038): 862.63 ± 0.54 kg/m3 | mass density (318.14 K, 19647 kPa, x1 = 0.0237): 845.05 ± 0.56 kg/m3 | mass density (318.14 K, 19720 kPa, x1 = 0.0237): 845.71 ± 0.56 kg/m3 | mass density (318.14 K, 19769 kPa, x1 = 0.0237): 846.15 ± 0.56 kg/m3 | mass density (318.14 K, 19815 kPa, x1 = 0.0237): 846.6 ± 0.56 kg/m3 | mass density (318.14 K, 19868 kPa, x1 = 0.0237): 847.1 ± 0.56 kg/m3 | mass density (318.14 K, 19940 kPa, x1 = 0.0237): 847.81 ± 0.56 kg/m3 | mass density (318.14 K, 20042 kPa, x1 = 0.0237): 848.76 ± 0.56 kg/m3 | mass density (318.14 K, 20202 kPa, x1 = 0.0237): 850.16 ± 0.56 kg/m3 | mass density (318.14 K, 20409 kPa, x1 = 0.0237): 851.93 ± 0.56 kg/m3 | mass density (318.14 K, 20762 kPa, x1 = 0.0237): 854.79 ± 0.55 kg/m3
